This note sets out measurements from US10322110B2, “Imidazole-based antimicrobial agents” (priority 2014, dated 2019).

Data set [1] has as its system Staphylococcus epidermidis (PCI 1200, ATCC12228). Nature of the data set: broth microdilution MIC assay, Staphylococcus epidermidis. Type of data set: cell-based. To be noted: ATCC12228, read-out: Antibacterial activity SE (Staphylococcus epidermidis).
Data set [2] deals with Staphylococcus aureus MRSA (COL). In words: broth microdilution MIC assay, Staphylococcus aureus MRSA (COL). It is filed as cell-based. Particulars: for MIC: Staphylococcus aureus, MRSA. Background: Dilution methods test growth across graded concentrations, often in twofold steps.
For data set [3], the system named is Human hepatocytes (HepaRG cells). Nature of the data set: human cytotoxicity assay in vitro (CellTiter-Glo), hepatocytes. It is filed as cell-based. Particulars: cytotoxicity class.
For data set [4], the system named is penicillin-, erythromycin- and tetracycline-resistant Streptococcus pneumoniae (ATCC 700677), ARSP. In words: microbe, parasite or virus in culture. Type of data set: cell-based.
For data set [5], the system named is Bacillus subtilis (Marburg strain, ATCC6051). Nature of the data set: microbe, parasite or virus in culture. Type of data set: cell-based. Particulars: ATCC6051, read-out: Antibacterial activity BS (Bacillus substilis).
Data set [6] concerns Staphylococcus aureus MSSA (Newman). In words: broth microdilution MIC assay, Staphylococcus aureus MSSA (Newman). It is filed as cell-based. Particulars: for MIC: Staphylococcus aureus; for Antibacterial activity Staphylococcus aureus (MSSA): MIC100 class score, broth microdilution.
In data set [7] the test system is Mycobacterium smegmatis (mc(2)155, ATCC700084). Nature of the data set: broth microdilution MIC assay, Mycobacterium smegmatis. Particulars: MIC activity class.
The test system of data set [8] is Streptococcus pneumoniae (Chester, ATCC49619). Nature of the data set: broth microdilution MIC assay, Streptococcus pneumoniae. Type of data set: cell-based. Particulars: MIC100 class score, 24 h.
Data set [9] relates to Escherichia coli TolC mutant strain ΔtoIC (K12 b3035 TolC; JW5503). It is filed as cell-based. To be noted: MIC activity class.
Data set [10] has as its system vancomycin-resistant Staphylococcus aureus. In words: broth microdilution MIC assay,  MRSA (COL). Type of data set: cell-based. To be noted: read-out: MIC for the resistant strain.
Setting [11] is: read-out: Antibacterial activity MRSA (Staphylococcus aureus MRSA).
[12] abbreviates: MIC100 class score, broth microdilution, 24 h, read-out: Antibacterial activity Staphylococcus aureus (MRSA).
Setting [13] is: ATCC700677, MIC activity class, read-out: Antibacterial activity ARSP (multi-drug resistant-SP).
The mark [14] stands for this setting: 24 h, read-out: Antibacterial activity Staphylococcus aureus (MSSA).
[15] abbreviates: read-out: Antibacterial activity MSSA (Staphylococcus aureus MSSA).
The mark [16] stands for this setting: ATCC700677, read-out: Antibacterial activity ARSP (multi-drug resistant-SP).
The mark [17] stands for this setting: MIC100 class score, broth microdilution, 24 h.

Converted amounts (≈) assume the structure as drawn. Like-named read-outs stand apart in the source and are kept apart here.

`Cc1nc(-c2ccc(-c3ccc(Cl)cc3Cl)o2)[nH]c1-c1ccccc1` [Compound 1]: the MIC in data set [1] is 3 to 10 µg/mL (≈ 8.12 to 27.1 µM); in data set [2] (setting [11]), 1 to 3 µg/mL (≈ 2.71 to 8.12 µM); in data set [2] (setting [12]), 1 to 3 µg/mL (≈ 2.71 to 8.12 µM); in [4] (setting [13]) it was below 1 µg/mL; in data set [5], 3 to 10 µg/mL (≈ 8.12 to 27.1 µM); in [6] (setting [14]), 1 to 3 µg/mL (≈ 2.71 to 8.12 µM). The MIC in data set [6] (setting [15]) was in the range of 1 to 3 µg/mL (≈ 2.71 to 8.12 µM). Further, the “cytotoxicity cell line H (hepatocytes)” value in [3] turned out to be 2. In addition, the “Antibacterial activity MS (Mycobacterium smegmatis)” value (from here on “Antibacterial activity MS”) in [7] is 2 (MIC100 of 11-201 μg/ml).

`Cc1[nH]c(-c2ccc(-c3ccc(Cl)cc3)s2)nc1-c1ccccc1` [Compound 6]: the MIC in [4] (setting [13]) was in the range of 2 to 5 µg/mL (≈ 5.7 to 14.3 µM); in [5] it was 11 to 201 µg/mL (≈ 31.4 to 573 µM). In data set [7], the “Antibacterial activity MS” value is recorded as 2 (MIC100 of 11-201 μg/ml). For the same compound, in [8], the “Antibacterial activity Streptococcus pneumoniae” value is 3 (MIC100 of 2-5 μg/ml).

With `Cc1[nH]c(-c2ccc(-c3ccccc3F)s2)nc1-c1ccccc1` [Compound 15], the MIC in data set [4] (setting [16]) lay in the range of 2 to 5 µg/mL (≈ 5.98 to 15 µM). Further, the “Antibacterial activity MS” value in data set [7] is recorded as 2 (MIC100 of 11-201 μg/ml). Moreover, the “Antibacterial activity Streptococcus pneumoniae” value in [8] is given as 3 (MIC100 of 2-5 μg/ml).

With `Cc1nc(-c2ccc(-c3ccccc3OC(F)(F)F)o2)[nH]c1-c1ccccc1Cl` [Compound 19], the MIC was 20 to 50 µg/mL (≈ 47.8 to 119 µM) in [2] (setting [11]), 2 to 5 µg/mL (≈ 4.78 to 11.9 µM) in data set [4] (setting [16]) and 20 to 50 µg/mL (≈ 47.8 to 119 µM) in data set [6] (setting [15]). In addition, the “cytotoxicity cell line H (hepatocytes)” value in [3] was found to be 3. In addition, in data set [7], the “Antibacterial activity MS” value is recorded as 2 (MIC100 of 11-201 μg/ml).

Take `Cc1nc(-c2ccc(-c3cccc(OC(F)(F)F)c3)o2)[nH]c1-c1ccccc1` [Compound 34]: the MIC in data set [1] is 20 to 50 µg/mL (≈ 52 to 130 µM); in data set [2] (setting [11]) it was 1 to 3 µg/mL (≈ 2.6 to 7.81 µM); in data set [2] (setting [12]) it was 1 to 3 µg/mL (≈ 2.6 to 7.81 µM); in data set [4] (setting [13]), below 1 µg/mL; in data set [5], 3 to 10 µg/mL (≈ 7.81 to 26 µM); in data set [6] (setting [14]) it was 1 to 3 µg/mL (≈ 2.6 to 7.81 µM). Moreover, in [6] (setting [15]), the MIC lay within 1 to 3 µg/mL (≈ 2.6 to 7.81 µM). For the same compound, the “cytotoxicity cell line H (hepatocytes)” value in [3] came to 2. The “Antibacterial activity MS” value in data set [7] is given as 2 (MIC100 of 11-201 μg/ml).

For `Cc1nc(-c2ccc(-c3cccc(OC(F)(F)F)c3)o2)[nH]c1-c1ccc(F)cc1` [Compound 37], the MIC in data set [1] was in the range of 20 to 50 µg/mL (≈ 49.7 to 124 µM); in [2] (setting [11]), 3 to 10 µg/mL (≈ 7.46 to 24.9 µM); in [4] (setting [13]), 2 to 5 µg/mL (≈ 4.97 to 12.4 µM); in data set [5], 3 to 10 µg/mL (≈ 7.46 to 24.9 µM); in data set [6] (setting [15]), 3 to 10 µg/mL (≈ 7.46 to 24.9 µM). Further, the “cytotoxicity cell line H (hepatocytes)” value in data set [3] came to 3. Besides, the “Antibacterial activity Staphylococcus aureus (MSSA)” value in [6] (24 h) was 3 (MIC100 of 3-10 μg/ml). Also, the “Antibacterial activity MS” value in [7] was 2 (MIC100 of 11-201 μg/ml).

Consider `Cc1[nH]c(-c2ccc(-c3ccc(C(F)(F)F)cc3)o2)nc1-c1ccc(Cl)cc1` [Compound 47], for which the MIC in [1] was 3 to 10 µg/mL (≈ 7.45 to 24.8 µM); in data set [2] (setting [11]), 3 to 10 µg/mL (≈ 7.45 to 24.8 µM); in [4] (setting [13]), below 1 µg/mL; in data set [5] it was 3 to 10 µg/mL (≈ 7.45 to 24.8 µM); in data set [6] (setting [15]), 1 to 3 µg/mL (≈ 2.48 to 7.45 µM). Moreover, the “Antibacterial activity Staphylococcus aureus (MRSA)” value in data set [2] (setting [17]) is given as 3 (MIC100 of 3-10 μg/ml). Moreover, the “Antibacterial activity MS” value in [7] is recorded as 3 (MIC100 of 3-10 μg/ml).

As to `Cc1[nH]c(-c2ccc(-c3cccc(F)c3C)o2)nc1-c1ccccc1` [Compound 60], the MIC in data set [1] was 20 to 50 µg/mL (≈ 60.2 to 150 µM); in data set [2] (24 h, read-out: Antibacterial activity Staphylococcus aureus (MRSA)), 20 to 50 µg/mL (≈ 60.2 to 150 µM); in [2] (setting [11]) it was 20 to 50 µg/mL (≈ 60.2 to 150 µM); in [4] (setting [13]), 2 to 5 µg/mL (≈ 6.02 to 15 µM); in data set [5] it was 3 to 10 µg/mL (≈ 9.03 to 30.1 µM); in [6] (setting [14]), 3 to 10 µg/mL (≈ 9.03 to 30.1 µM). Also, the MIC in data set [6] (setting [15]) lay in the range of 3 to 10 µg/mL (≈ 9.03 to 30.1 µM). The “cytotoxicity cell line H (hepatocytes)” value in data set [3] was 3. Besides, the “Antibacterial activity MS” value in [7] is listed as 2 (MIC100 of 11-201 μg/ml).

`Cc1ccccc1-c1c[nH]c(-c2ccc(-c3ccccc3OC(F)(F)F)o2)n1` [Compound 66]: the MIC in data set [1] was 20 to 50 µg/mL (≈ 52 to 130 µM); in data set [2] (setting [11]), 11 to 201 µg/mL (≈ 28.6 to 523 µM); in data set [4] (setting [13]) it was 2 to 5 µg/mL (≈ 5.2 to 13 µM); in data set [5] it was 3 to 10 µg/mL (≈ 7.81 to 26 µM); in [6] (setting [15]), 3 to 10 µg/mL (≈ 7.81 to 26 µM). The “Antibacterial activity Staphylococcus aureus (MRSA)” value in data set [2] (setting [17]) is listed as 2 (MIC100 of 11-201 μg/ml). The “cytotoxicity cell line H (hepatocytes)” value in [3] is 3. Also, the “Antibacterial activity Staphylococcus aureus (MSSA)” value in [6] (24 h) is listed as 3 (MIC100 of 3-10 μg/ml). Also, the “Antibacterial activity MS” value in [7] is reported as 2 (MIC100 of 11-201 μg/ml).

With `FC(F)(F)Oc1ccccc1-c1ccc(-c2nc(-c3ccc(Cl)cc3Cl)c[nH]2)o1` [Compound 68], the MIC lay within 3 to 10 µg/mL (≈ 6.83 to 22.8 µM) in data set [1]; 11 to 201 µg/mL (≈ 25 to 458 µM) in [2] (setting [11]); 2 to 5 µg/mL (≈ 4.55 to 11.4 µM) in data set [4] (setting [13]); 3 to 10 µg/mL (≈ 6.83 to 22.8 µM) in data set [5]; 11 to 201 µg/mL (≈ 25 to 458 µM) in data set [6] (setting [15]). For the same compound, the “cytotoxicity cell line H (hepatocytes)” value in data set [3] amounted to 2. In addition, the “Antibacterial activity Staphylococcus aureus (MSSA)” value in data set [6] (24 h) was 2 (MIC100 of 11-201 μg/ml). Besides, the “Antibacterial activity Streptococcus pneumoniae” value in data set [8] is 2 (MIC100 of 6-10 μg/ml).

As for `Cc1ccccc1-c1cnc(-c2ccc(-c3ccccc3C(F)(F)F)o2)[nH]1` [Compound 69], the “Antibacterial activity Staphylococcus aureus (MRSA)” value in data set [2] (setting [17]) was 2 (MIC100 of 11-201 μg/ml). The “cytotoxicity cell line H (hepatocytes)” value in data set [3] was determined as 2. The MIC is 2 to 5 µg/mL (≈ 5.43 to 13.6 µM) in data set [4] (setting [13]), 20 to 50 µg/mL (≈ 54.3 to 136 µM) in data set [5] and 11 to 201 µg/mL (≈ 29.9 to 546 µM) in data set [6] (setting [15]). Also, the “Antibacterial activity Staphylococcus aureus (MSSA)” value in data set [6] (24 h) is 3 (MIC100 of 3-10 μg/ml). Moreover, the “Antibacterial activity MS” value in data set [7] was 2 (MIC100 of 11-201 μg/ml).

Consider `CN(C)Cc1[nH]c(-c2ccc(-c3ccccc3C(F)(F)F)o2)nc1-c1ccccc1` [Compound 70], for which the MIC in data set [1] was 11 to 201 µg/mL (≈ 26.7 to 489 µM); in data set [2] (setting [11]), 20 to 50 µg/mL (≈ 48.6 to 122 µM); in data set [2] (setting [12]) it was 20 to 50 µg/mL (≈ 48.6 to 122 µM); in [5] it was 20 to 50 µg/mL (≈ 48.6 to 122 µM); in data set [6] (setting [14]), 20 to 50 µg/mL (≈ 48.6 to 122 µM); in data set [6] (setting [15]), 20 to 50 µg/mL (≈ 48.6 to 122 µM). Besides, the “cytotoxicity cell line H (hepatocytes)” value in [3] came out at 3. The “Antibacterial activity EC Δ (Escherichia coli ΔtoIC)” value in data set [9] is 3 (MIC100 of 3-10 μg/ml).

Consider `CN[C@H](CC(C)C)C(=O)N[C@H]1C(=O)N[C@@H](CC(N)=O)C(=O)N[C@H]2C(=O)N[C@H]3C(=O)N[C@H](C(=O)N[C@H](C(=O)O)c4cc(O)cc(O)c4-c4cc3ccc4O)[C@H](O)c3ccc(c(Cl)c3)Oc3cc2cc(c3O[C@@H]2O[C@H](CO)[C@@H](O)[C@H](O)[C@H]2O[C@H]2C[C@](C)(N)[C@H](O)[C@H](C)O2)Oc2ccc(cc2Cl)[C@H]1O` [vancomycin, Vancomycin], for which the MIC in data set [10] amounted to 20 µg/mL (≈ 13.8 µM).
